Values quoted from earlier work in patent publication US8383697B2 (priority 2009, dated 2013).

What was measured:
rats = conditions: in vivo
[1] = in vivo

SMILES: CCCCCCCCCCCC(=O)OOC(=O)CCCCCCCCCCC [Initiator VIII, lauroyl peroxide]
- Rat Oral LD50 (rats): 10,000 mg/kg

SMILES: CCO [ethanol]
- LD50 [1]: 7060 mg/kg

SMILES: O=C(OOC(=O)c1ccccc1)c1ccccc1 [Initiator VII, benzoyl peroxide]
- Rat Oral LD50 (rats): 7,710 mg/kg

SMILES: CC(C)(C)OOC(C)(C)C [Initiator X, tert-butyl peroxide]
- Rat Oral LD50 (rats): 25,000 mg/kg

SMILES: CC(C)(C)OOC(=O)c1ccccc1 [Initiator XI, tert-butyl peroxybenzoate]
- Rat Oral LD50 (rats): 4,160 mg/kg
